Measurements reported in ChEMBL document CHEMBL3608212, “Design, synthesis, and in vivo activity of novel inhibitors of delta-5 desaturase for the treatment of metabolic syndrome” (Bioorg Med Chem Lett, 2015).

Assays:
[1] = target: T1, Acyl-CoA (8-3)-desaturase (Homo sapiens, UniProt O60427); assay: Inhibition of liver delta-5 desaturase (unknown origin)
Target sequence in this assay (O60427 whole entry): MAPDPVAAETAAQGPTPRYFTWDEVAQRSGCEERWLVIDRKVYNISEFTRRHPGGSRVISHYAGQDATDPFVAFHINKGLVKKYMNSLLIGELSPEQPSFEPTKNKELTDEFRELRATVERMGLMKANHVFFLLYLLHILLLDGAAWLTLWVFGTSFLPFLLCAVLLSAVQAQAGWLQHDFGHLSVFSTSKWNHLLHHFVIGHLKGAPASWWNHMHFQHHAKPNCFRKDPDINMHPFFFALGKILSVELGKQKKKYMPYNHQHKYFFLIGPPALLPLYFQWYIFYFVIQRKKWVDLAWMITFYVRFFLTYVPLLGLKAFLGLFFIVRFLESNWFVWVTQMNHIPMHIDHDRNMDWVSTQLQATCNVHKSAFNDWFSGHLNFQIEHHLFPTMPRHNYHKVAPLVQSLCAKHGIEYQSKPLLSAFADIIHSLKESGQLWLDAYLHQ

[2] = Ratio of plasma concentration in mouse at 30 mg/kg, po after 0.5 hrs to IC50 for liver delta-5 desaturase (unknown origin); type: ADME, organism-based; conditions: in vivo
Mus musculus [3] = assay: In vivo inhibition of delta-5 desaturase in mouse liver assessed as conversion of [14C]-DGLA to [14C]-arachidonic acid at 30 mg/kg, po after 2.5 hrs by TLC analysis relative to control; type: functional
[4] = Plasma concentration in mouse at 30 mg/kg, po after 0.5 hrs by LC/MS-MS analysis; type: ADME, organism-based
[5] = target: T1, Acyl-CoA (8-3)-desaturase; assay: Inhibition of liver delta-5 desaturase (unknown origin) at 1 uM
Target sequence in this assay (O60427 whole entry, looked up): as the sequence (O60427 whole entry) above

[6] = Ratio of plasma concentration in mouse at 60 mg/kg, po after 0.5 hrs to IC50 for liver delta-5 desaturase (unknown origin); type: ADME, organism-based; conditions: in vivo
[7] = Plasma concentration in mouse at 60 mg/kg, po after 0.5 hrs by LC/MS-MS analysis; type: ADME, organism-based
Mus musculus [8] = assay: In vivo inhibition of delta-5 desaturase in mouse liver assessed as conversion of [14C]-DGLA to [14C]-arachidonic acid at 60 mg/kg, po after 2.5 hrs by TLC analysis relative to control; type: functional

IC50 [1] [nM] | SMILES | further results
> 3000 | FC(F)(F)Oc1ccc2[nH]nc(Nc3cccc(Cl)c3)c2c1 | 
67 | Nc1ccc(F)cc1C(=O)Nc1cccc(Cl)c1 | 
58 | Nc1ccccc1C(=O)Nc1cccc(Cl)c1 | 
59 | Fc1cccc(Nc2n[nH]c3ccccc23)c1 | Ratio [2]: 160; inhibition in vivo at 30 mg/kg (Mus musculus [3]): 18%; concentration at 0.5 h [4]: 9.45 µM
21 | Clc1cccc(Nc2n[nH]c3ccc(Br)cc23)c1 | 
5 | Clc1cccc(Nc2n[nH]c3ccc(Cl)cc23)c1 | 
173 | Clc1cccc(NC2CCc3ccccc32)c1 (stereo not drawn) | 
925 | CCOc1ccc(O)c(C(=O)Nc2cccc(Cl)c2)c1 | 
11 | Clc1cccc(Nc2ncnc3ccccc23)c1 | 
8 | COc1ccc2[nH]nc(Nc3cccc(Cl)c3)c2c1 | Ratio [2]: 652; Ratio [6]: 1753; inhibition in vivo at 30 mg/kg (Mus musculus [3]): 75%; concentration at 0.5 h [7]: 14 µM; inhibition in vivo at 60 mg/kg (Mus musculus [8]): 97%; concentration at 0.5 h [4]: 5.21 µM
260 | Clc1cccc(Nc2ncnc3sccc23)c1 | 
245 | Nc1ccccc1C(=O)Nc1cc(Cl)cc(Cl)c1 | 
50 | Clc1cccc(Nc2ncnc3ccsc23)c1 | 
174 | O=C(Nc1cccc(Cl)c1)c1ccccc1O | 

Further lines, the molecule ahead of its results:

SMILES | IC50 [1] [nM] | further results
Clc1cccc(Nc2nccc3occc23)c1 | 371 | 
CC(C)c1cccc(NC(=O)c2ccccc2N)c1 | 843 | 
Clc1cccc(Nc2cccc3ccccc23)c1 | 17 | 
FC(F)(F)c1ccc2[nH]nc(Nc3cccc(Cl)c3)c2c1 | 254 | 
Nc1ccccc1C(=O)Nc1ccc(F)c(Cl)c1 | 155 | 
Nc1ccccc1C(=O)Nc1cccc(F)c1 | 516 | 
COc1ccc(O)c(C(=O)Nc2cccc(Cl)c2)c1 | 15 | 
Nc1ccccc1C(=O)Nc1ccccc1Cl |  | inhibition [5]: 39%
Cc1ccc2[nH]nc(Nc3cccc(Cl)c3)c2c1 | 6 | 
Clc1cccc(Nc2ccnc3ccccc23)c1 | 18 | 
Clc1cccc(Nc2n[nH]c3ccccc23)c1 | 84 | Ratio [2]: 151; inhibition in vivo at 30 mg/kg (Mus musculus [3]): 42%; concentration at 0.5 h [4]: 12.7 µM
Fc1ccc2[nH]nc(Nc3cccc(Cl)c3)c2c1 | 58 | Ratio [2]: 242; inhibition in vivo at 30 mg/kg (Mus musculus [3]): 49%; concentration at 0.5 h [4]: 14.1 µM
Nc1ccccc1C(=O)Nc1ccc(Cl)cc1 |  | inhibition [5]: 36%
Nc1ccc(Cl)cc1C(=O)Nc1cccc(Cl)c1 | 34 | 
